In ChEMBL document CHEMBL5126669, “Discovery of 5,7-Dihydro-6H-pyrrolo[2,3-d]pyrimidin-6-ones as Highly Selective CDK2 Inhibitors” (ACS Med Chem Lett, 2022):
Values belong to the compound of their own block, whether it stands above or below them.

Key:
[1] = biological target: Cyclin-dependent kinase 1 (Homo sapiens, UniProt P06493); test: Inhibition of CDK1 in human OVCAR3 cells incubated for 30 mins in presence of pNPM T199 by western blot analysis; assay type: cell-based, OVCAR-3
Homo sapiens [2] = species on record: Homo sapiens; test: Selectivity ratio of IC50 for inhibition of CDK6/cyclin D1 (unknown origin) to IC50 for inhibition recombinant human N-terminal GST-tagged full-length CDK2/Flag-tagged cyclinE1 expressed in baculovirus expression system
[3] = biological target: Cyclin-dependent kinase 2/cyclin E1 (Homo sapiens, UniProt P24941); test: Inhibition of recombinant human N-terminal GST-tagged full-length CDK2/Flag-tagged cyclinE1 expressed in baculovirus expression system using eIF4E-binding protein-1 peptide as substrate incubated for 1 hr in presence of ATP by HTRF assay
[4] = biological target: T1, Cyclin-dependent kinase 2 (Homo sapiens, UniProt P24941); test: Inhibition of CDK2 in human COV318 cells incubated for overnight in presence of phospho-Rb by HTRF assay; assay type: cell-based
Homo sapiens [5] = species on record: Homo sapiens; test: Selectivity ratio of IC50 for inhibition of CDK4/cyclin D1 (unknown origin) to IC50 for inhibition recombinant human N-terminal GST-tagged full-length CDK2/Flag-tagged cyclinE1 expressed in baculovirus expression system
Homo sapiens [6] = species on record: Homo sapiens; test: Selectivity ratio of IC50 for inhibition of CDK1 in human OVCAR3 cells to IC50 for inhibition of CDK2 in human COV318 cells; assay type: cell-based
[7] = Intrinsic clearance in human liver microsomes at 1 uM measured upto 30 mins by LC/MS analysis; assay type: ADME, Microsome; settings: read-out: CLH (converted)
Homo sapiens [8] = species on record: Homo sapiens; test: Selectivity ratio of IC50 for inhibition of CDK1/cyclin B (unknown origin) to IC50 for inhibition recombinant human N-terminal GST-tagged full-length CDK2/Flag-tagged cyclinE1 expressed in baculovirus expression system
[9] = biological target: T1, Cyclin-dependent kinase 2; test: Inhibition of CDK2 in human COV318 cells incubated for overnight in presence of human whole blood by HTRF assay; assay type: cell-based
[10] = Oral bioavailability in Sprague-Dawley rat at 3 mg/kg measured upto 24 hrs by LC-MS/MS analysis; assay type: ADME, organism-based; settings: in vivo
[11] = Metabolic stability in Cynomolgus monkey liver microsomes assessed as compound demethylation at 5 uM measured upto 30 mins by HPLC/MS analysis; assay type: ADME, Macaca fascicularis, Microsome; settings: 0.5 h
[12] = Metabolic stability in Cynomolgus monkey liver microsomes assessed as remaining parent compound at 5 uM measured upto 30 mins by HPLC/MS analysis; assay type: ADME, Macaca fascicularis, Microsome; settings: 0.5 h
[13] = Solubility of compound; assay type: physicochemical
Cytochrome P450 2C8 = biological target: T2, Cytochrome P450 2C8 (Homo sapiens, UniProt P10632); test: Inhibition of CYP2C8 (unknown origin) at >25 uM; assay type: ADME
T2 sequence (P10632 whole entry): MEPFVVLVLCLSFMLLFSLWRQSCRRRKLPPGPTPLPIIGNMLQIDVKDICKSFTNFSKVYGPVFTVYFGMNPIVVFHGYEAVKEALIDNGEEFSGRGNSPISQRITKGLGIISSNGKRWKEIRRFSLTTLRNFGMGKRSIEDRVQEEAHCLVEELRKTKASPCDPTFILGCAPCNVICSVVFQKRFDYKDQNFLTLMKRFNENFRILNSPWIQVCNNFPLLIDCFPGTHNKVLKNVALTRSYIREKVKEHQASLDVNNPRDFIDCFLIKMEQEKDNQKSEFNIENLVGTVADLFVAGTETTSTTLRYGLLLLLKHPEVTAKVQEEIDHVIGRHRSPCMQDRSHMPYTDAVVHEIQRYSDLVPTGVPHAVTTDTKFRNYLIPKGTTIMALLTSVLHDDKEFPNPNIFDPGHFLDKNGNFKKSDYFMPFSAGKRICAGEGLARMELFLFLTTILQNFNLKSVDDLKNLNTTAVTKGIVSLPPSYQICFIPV

[14] = Cmax in Sprague-Dawley rat at 3 mg/kg, po measured upto 24 hrs by LC-MS/MS analysis; assay type: ADME, organism-based; set-up: dose 3 mg/kg, time < 24 hrs, route po; settings: in vivo
Cytochrome P450 2C9 = Cytochrome P450 2C9 (Homo sapiens, UniProt P11712); test: Inhibition of CYP2C9 (unknown origin) at >25 uM; assay type: ADME
[15] = Metabolic stability in Sprague-Dawley rat liver microsomes assessed as compound oxidation at 5 uM measured upto 30 mins by HPLC/MS analysis; assay type: ADME, Microsome; settings: 0.5 h
[16] = Volume of distribution at steady state in Sprague-Dawley rat at 0.5 mg/kg, iv measured upto 24 hrs by LC-MS/MS analysis; assay type: ADME, organism-based; settings: in vivo, iv, 0.5 mg/kg, 24 h
[17] = AUC in Sprague-Dawley rat at 3 mg/kg, po measured upto 24 hrs by LC-MS/MS analysis; assay type: ADME, organism-based; set-up: dose 3 mg/kg, time < 24 hrs, route po; settings: in vivo
[18] = Metabolic stability in Sprague-Dawley rat liver microsomes assessed as remaining parent compound at 5 uM measured upto 30 mins by HPLC/MS analysis; assay type: ADME, Microsome; settings: 0.5 h
Cytochrome P450 3A4 = Cytochrome P450 3A4 (Homo sapiens, UniProt P08684); test: Inhibition of CYP3A4 (unknown origin) at >25 uM; assay type: ADME
[19] = Metabolic stability in human liver microsomes assessed as compound demethylation at 5 uM measured upto 30 mins by HPLC/MS analysis; assay type: ADME, Microsome; settings: 0.5 h
[20] = Metabolic stability in human liver microsomes assessed as compound oxidation at 5 uM measured upto 30 mins by HPLC/MS analysis; assay type: ADME, Microsome; settings: liver microsomes, read-out: Drug metabolism
Cytochrome P450 2C19 = Cytochrome P450 2C19 (Homo sapiens, UniProt P33261); test: Inhibition of CYP2C19 (unknown origin) at >25 uM; assay type: ADME
[21] = Metabolic stability in Sprague-Dawley rat liver microsomes assessed as compound demethylation at 5 uM measured upto 30 mins by HPLC/MS analysis; assay type: ADME, Microsome; settings: 0.5 h
[22] = Hepatic blood flow in Sprague-Dawley rat at 0.5 mg/kg, iv measured upto 24 hrs by LC-MS/MS analysis; assay type: ADME, organism-based; settings: in vivo
Cytochrome P450 2B6 = biological target: T3, Cytochrome P450 2B6 (Homo sapiens, UniProt P20813); test: Inhibition of CYP2B6 (unknown origin) at >25 uM; assay type: ADME
T3 sequence (P20813 whole entry): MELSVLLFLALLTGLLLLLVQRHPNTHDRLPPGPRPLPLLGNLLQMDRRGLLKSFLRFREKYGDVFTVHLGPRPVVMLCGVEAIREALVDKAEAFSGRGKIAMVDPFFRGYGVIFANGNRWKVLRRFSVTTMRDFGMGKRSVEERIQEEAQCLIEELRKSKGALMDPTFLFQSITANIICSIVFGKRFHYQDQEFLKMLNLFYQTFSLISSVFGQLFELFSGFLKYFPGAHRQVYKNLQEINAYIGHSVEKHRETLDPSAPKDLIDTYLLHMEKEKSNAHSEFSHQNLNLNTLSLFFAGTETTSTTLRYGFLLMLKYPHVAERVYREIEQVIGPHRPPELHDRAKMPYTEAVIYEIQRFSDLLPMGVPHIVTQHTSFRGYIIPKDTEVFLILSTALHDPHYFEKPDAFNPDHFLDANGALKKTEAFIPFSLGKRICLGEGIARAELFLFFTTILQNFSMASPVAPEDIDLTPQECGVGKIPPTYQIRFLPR

hERG (KCNH2) = hERG (KCNH2) (Homo sapiens, UniProt Q12809); test: Displacement of [3H]Dofetilide from human ERG at 10 uM incubated for 24 hrs by filter binding assay relative to control; assay type: toxicity; settings: probe [3H]dofetilide
Cytochrome P450 2D6 = Cytochrome P450 2D6 (Homo sapiens, UniProt P10635); test: Inhibition of CYP2D6 (unknown origin) at >25 uM; assay type: ADME
Cytochrome P450 1A2 = biological target: T4, Cytochrome P450 1A2 (Homo sapiens, UniProt P05177); test: Inhibition of CYP1A2 (unknown origin) at >25 uM; assay type: ADME
T4 sequence (P05177 whole entry): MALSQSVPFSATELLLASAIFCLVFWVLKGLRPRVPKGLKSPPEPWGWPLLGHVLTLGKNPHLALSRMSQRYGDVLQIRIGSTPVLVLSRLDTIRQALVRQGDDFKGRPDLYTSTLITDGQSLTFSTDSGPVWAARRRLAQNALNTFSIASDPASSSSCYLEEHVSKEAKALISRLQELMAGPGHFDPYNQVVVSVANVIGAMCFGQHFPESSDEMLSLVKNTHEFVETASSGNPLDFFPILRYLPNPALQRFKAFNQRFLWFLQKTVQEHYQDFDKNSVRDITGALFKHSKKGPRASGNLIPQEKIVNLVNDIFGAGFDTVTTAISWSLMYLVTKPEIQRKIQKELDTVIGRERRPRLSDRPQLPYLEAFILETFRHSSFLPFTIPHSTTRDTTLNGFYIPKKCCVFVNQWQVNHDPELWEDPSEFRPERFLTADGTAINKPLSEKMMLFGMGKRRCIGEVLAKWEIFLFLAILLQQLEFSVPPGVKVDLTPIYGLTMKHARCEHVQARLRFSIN

[23] = Metabolic stability in human liver microsomes assessed as remaining parent compound at 5 uM measured upto 30 mins by HPLC/MS analysis; assay type: ADME, Microsome; settings: liver microsomes, read-out: Stability
[24] = Metabolic stability in Cynomolgus monkey liver microsomes assessed as compound oxidation at 5 uM measured upto 30 mins by HPLC/MS analysis; assay type: ADME, Macaca fascicularis, Microsome; settings: 0.5 h

Chain of Cytochrome P450 3A4 (P08684 whole entry): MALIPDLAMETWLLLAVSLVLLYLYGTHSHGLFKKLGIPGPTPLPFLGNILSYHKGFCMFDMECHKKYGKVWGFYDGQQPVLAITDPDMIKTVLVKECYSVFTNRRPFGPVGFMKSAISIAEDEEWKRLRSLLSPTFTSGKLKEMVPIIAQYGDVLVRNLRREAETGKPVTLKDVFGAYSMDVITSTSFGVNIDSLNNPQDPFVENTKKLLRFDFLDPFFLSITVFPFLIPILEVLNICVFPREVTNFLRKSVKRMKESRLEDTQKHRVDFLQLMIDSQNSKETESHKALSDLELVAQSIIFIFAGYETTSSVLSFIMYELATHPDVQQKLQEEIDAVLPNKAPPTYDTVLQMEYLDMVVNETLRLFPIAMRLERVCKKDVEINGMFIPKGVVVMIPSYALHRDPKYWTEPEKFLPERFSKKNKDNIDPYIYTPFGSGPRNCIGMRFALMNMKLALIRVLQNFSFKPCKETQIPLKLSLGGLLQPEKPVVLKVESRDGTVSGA
Chain of hERG (KCNH2) (Q12809 whole entry): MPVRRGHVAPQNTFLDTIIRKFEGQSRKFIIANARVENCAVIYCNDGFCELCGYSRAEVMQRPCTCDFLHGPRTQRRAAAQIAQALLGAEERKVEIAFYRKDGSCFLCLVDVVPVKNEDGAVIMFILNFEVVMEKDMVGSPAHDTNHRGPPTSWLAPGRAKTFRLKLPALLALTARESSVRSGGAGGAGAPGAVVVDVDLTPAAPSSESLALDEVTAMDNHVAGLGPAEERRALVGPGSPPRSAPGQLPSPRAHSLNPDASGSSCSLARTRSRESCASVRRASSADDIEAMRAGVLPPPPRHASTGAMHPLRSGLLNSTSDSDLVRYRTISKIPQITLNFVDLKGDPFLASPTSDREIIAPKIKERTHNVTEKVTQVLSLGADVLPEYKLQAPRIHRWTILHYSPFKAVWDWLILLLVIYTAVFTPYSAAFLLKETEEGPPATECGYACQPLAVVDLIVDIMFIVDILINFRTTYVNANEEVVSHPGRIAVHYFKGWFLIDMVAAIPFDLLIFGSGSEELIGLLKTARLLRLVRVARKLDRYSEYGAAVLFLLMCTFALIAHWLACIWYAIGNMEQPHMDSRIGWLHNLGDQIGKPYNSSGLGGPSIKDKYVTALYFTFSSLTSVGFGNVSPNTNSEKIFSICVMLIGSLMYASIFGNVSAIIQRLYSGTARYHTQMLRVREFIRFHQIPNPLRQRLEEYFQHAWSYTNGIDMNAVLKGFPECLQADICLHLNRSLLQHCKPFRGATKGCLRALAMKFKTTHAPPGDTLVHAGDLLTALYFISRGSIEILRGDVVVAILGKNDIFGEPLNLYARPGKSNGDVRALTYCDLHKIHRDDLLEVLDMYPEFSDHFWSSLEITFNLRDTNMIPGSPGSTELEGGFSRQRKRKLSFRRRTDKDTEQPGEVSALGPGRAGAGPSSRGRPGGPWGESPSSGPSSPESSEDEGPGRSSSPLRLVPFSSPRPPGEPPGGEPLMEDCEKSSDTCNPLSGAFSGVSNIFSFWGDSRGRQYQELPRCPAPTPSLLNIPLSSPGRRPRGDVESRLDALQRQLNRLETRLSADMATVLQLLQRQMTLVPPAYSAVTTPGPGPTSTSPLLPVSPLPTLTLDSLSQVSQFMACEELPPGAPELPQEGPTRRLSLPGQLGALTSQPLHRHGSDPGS
Chain of Cytochrome P450 2C9 (P11712 whole entry): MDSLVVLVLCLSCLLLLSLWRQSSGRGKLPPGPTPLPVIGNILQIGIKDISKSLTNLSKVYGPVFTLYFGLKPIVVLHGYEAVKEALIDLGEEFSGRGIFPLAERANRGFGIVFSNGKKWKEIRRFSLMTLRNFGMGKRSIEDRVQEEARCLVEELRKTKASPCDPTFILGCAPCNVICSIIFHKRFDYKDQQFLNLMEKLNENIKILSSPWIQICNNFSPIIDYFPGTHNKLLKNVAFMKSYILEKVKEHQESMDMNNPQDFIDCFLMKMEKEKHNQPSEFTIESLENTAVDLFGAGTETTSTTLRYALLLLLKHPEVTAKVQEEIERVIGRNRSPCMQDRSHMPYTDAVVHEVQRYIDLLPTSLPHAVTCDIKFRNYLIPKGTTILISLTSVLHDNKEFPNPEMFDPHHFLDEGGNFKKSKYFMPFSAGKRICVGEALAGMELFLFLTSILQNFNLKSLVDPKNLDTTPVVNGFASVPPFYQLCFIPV
Chain of Cytochrome P450 2D6 (P10635 whole entry): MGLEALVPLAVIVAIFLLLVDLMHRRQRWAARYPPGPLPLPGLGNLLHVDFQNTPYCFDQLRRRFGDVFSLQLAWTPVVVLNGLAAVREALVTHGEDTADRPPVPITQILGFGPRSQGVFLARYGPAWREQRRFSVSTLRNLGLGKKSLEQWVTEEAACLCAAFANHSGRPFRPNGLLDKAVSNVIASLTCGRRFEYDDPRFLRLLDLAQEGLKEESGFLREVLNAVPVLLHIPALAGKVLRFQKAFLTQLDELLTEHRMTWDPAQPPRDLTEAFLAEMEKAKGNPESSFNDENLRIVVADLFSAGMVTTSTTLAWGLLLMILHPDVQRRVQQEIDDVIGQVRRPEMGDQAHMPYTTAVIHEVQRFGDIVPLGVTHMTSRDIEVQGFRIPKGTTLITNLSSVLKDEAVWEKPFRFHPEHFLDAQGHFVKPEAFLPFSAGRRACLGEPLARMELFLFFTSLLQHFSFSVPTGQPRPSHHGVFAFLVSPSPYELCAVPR
Chain of Cyclin-dependent kinase 1 (P06493 whole entry): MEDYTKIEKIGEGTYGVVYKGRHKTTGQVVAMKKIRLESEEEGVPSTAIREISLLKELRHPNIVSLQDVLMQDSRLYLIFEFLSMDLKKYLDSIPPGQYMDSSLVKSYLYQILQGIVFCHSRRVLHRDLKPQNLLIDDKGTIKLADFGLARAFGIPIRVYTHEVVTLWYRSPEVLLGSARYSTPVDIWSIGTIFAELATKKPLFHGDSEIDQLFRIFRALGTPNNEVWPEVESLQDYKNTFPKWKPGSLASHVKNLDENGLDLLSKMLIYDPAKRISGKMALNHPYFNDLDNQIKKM
Chain of Cytochrome P450 2C19 (P33261 whole entry): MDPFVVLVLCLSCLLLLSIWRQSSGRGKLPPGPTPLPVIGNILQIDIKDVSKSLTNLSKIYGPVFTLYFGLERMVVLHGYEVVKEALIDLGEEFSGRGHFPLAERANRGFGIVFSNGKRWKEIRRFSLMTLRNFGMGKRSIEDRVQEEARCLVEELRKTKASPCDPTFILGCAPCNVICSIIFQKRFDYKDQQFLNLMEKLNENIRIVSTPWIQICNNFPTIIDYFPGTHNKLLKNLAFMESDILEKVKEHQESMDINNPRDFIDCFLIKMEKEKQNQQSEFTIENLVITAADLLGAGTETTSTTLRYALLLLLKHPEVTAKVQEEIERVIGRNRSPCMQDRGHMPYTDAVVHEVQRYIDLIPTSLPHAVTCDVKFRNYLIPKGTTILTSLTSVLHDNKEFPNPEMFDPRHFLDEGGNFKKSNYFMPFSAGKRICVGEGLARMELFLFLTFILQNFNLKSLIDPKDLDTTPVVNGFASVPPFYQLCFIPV

IC50 [1]: 1.2 µM | Ratio IC50 (Homo sapiens [2]): 7 | IC50 [3]: 0.004 µM | IC50 [4]: 0.0049 µM | Ratio IC50 (Homo sapiens [5]): 5 | predicted hepatic clearance at 1 µM [7]: 0.8 L/h/kg | Ratio IC50 (Homo sapiens [8]): 250 | IC50 [9]: 7.6 µM
SMILES: NS(=O)(=O)c1ccc(Nc2ncc3c(n2)N(C2CCCC2)C(=O)C32CC2)cc1
Ratio IC50 (Homo sapiens [6]): 245

bioavailability [10]: 92% | Drug metabolism [11]: 71% | Stability [12]: 20% | solubility [13]: > 0.4 mg/mL | inhibition (INH) (Cytochrome P450 2C8): Active | Cmax [14]: 0.752 µM | inhibition (INH) (Cytochrome P450 2C9): Active | Drug metabolism [15]: 54% | Vdss [16]: 3.2 L/kg | AUC at 24 h [17]: 666 nM·h | Stability [18]: 4.4% | inhibition (INH) (Cytochrome P450 3A4): Active | Drug metabolism [19]: 10% | metabolised at 0.5 h, 5 µM [20]: 5% | inhibition (INH) (Cytochrome P450 2C19): Active | predicted hepatic clearance at 1 µM [7]: < 0.5 L/h/kg | Drug metabolism [21]: 23% | IC50 [9]: 0.746 µM | QH [22]: > 100% | inhibition (INH) (Cytochrome P450 2B6): Active | inhibition (INH) (Cytochrome P450 2D6): Active | inhibition (INH) (Cytochrome P450 1A2): Active | remaining at 0.5 h, 5 µM [23]: 85% | Drug metabolism [24]: 12%
SMILES: [2H]C([2H])([2H])NS(=O)(=O)c1ccc(Nc2ncc3c(n2)N([C@@H]2CCC[C@@]2(C)O)C(=O)C32CC2)cc1 (relative stereo)
inhibition at 24 h, 10 µM (hERG (KCNH2)): 16%
